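Grown in 96-well plates, cells were treated for 48 hours with each compound at five concentrations. Insufficient inhibition: endpoint recorded as highest concentration tested. GI50 = concentration required for 50% inhibition of growth.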 Calls of active or inactive are those of the source. Cut-off read from the data, not from the text of the source: active = GI50 up to about 1.1 µM and inactive = higher.
Tests used:
Assay in all cases: NCI anticancer screen, dose series, 48 h
ACHN = test system: ACHN
COLO 205 = test system: COLO 205
EKVX = test system: EKVX
HCT-116 = test system: HCT-116
HOP-62 = test system: HOP-62
IGROV-1 = test system: IGROV-1
K562 = test system: K562
NCI-H522 = test system: NCI-H522
OVCAR-4 = test system: OVCAR-4
SF-295 = test system: SF-295
SF-539 = test system: SF-539
SK-OV-3 = test system: SK-OV-3
U-251 = test system: U-251
UACC-62 = test system: UACC-62
SNB-75 = test system: SNB-75

Measured: GI50

CC1(C)OC(=O)C(=Cc2ccc(O)cc2)C(=O)O1
inactive: ACHN > 100 µM | COLO 205 > 100 µM | EKVX > 100 µM | HCT-116 > 100 µM | HOP-62 > 100 µM | IGROV-1 > 100 µM | K562 > 100 µM | NCI-H522 > 100 µM | OVCAR-4 > 100 µM | SF-295 > 100 µM | SF-539 > 100 µM | SK-OV-3 > 100 µM | U-251 > 100 µM | UACC-62 > 100 µM

CC(=O)N(C(C)=O)C1=C2c3ccccc3N(S(=O)(=O)c3ccccc3)C2n2c(=O)n(-c3ccccc3)c(=O)n2C1 (stereo not drawn)
inactive: ACHN 30.9 µM | COLO 205 30.7 µM | EKVX 21.9 µM | HCT-116 43.3 µM | HOP-62 62.4 µM | IGROV-1 41.7 µM | K562 40.1 µM | NCI-H522 17.1 µM | SF-295 31.8 µM | SF-539 19.9 µM | SK-OV-3 32.8 µM | SNB-75 14 µM | U-251 34.4 µM | UACC-62 18.1 µM

O=c1nc2sc3ccc4ccccc4c3n2nc1O
inactive: COLO 205 62.4 µM | EKVX 60 µM | HCT-116 78.9 µM | HOP-62 23.8 µM | IGROV-1 67 µM | K562 44.5 µM | NCI-H522 53.7 µM | OVCAR-4 28.8 µM | SF-295 59.4 µM | SF-539 > 100 µM | SK-OV-3 > 100 µM | SNB-75 41.1 µM | U-251 25.2 µM | UACC-62 46.7 µM

O=C1/C(=C/c2ccccc2Cl)COc2ccc(Br)cc21
inactive: ACHN > 100 µM | COLO 205 73.8 µM | EKVX > 100 µM | HCT-116 25.1 µM | HOP-62 92.7 µM | IGROV-1 > 100 µM | K562 3.82 µM | NCI-H522 20.6 µM | SF-295 37.6 µM | SF-539 52.8 µM | SK-OV-3 27 µM | SNB-75 30.4 µM | U-251 40.6 µM

Cc1ccc(C)c(N2C(=O)C(=O)C(c3nc4ccccc4s3)/C(=N/NC(=O)NN)C2=O)c1 (stereo not drawn)
inactive: ACHN > 100 µM | COLO 205 > 100 µM | EKVX > 100 µM | HCT-116 > 100 µM | HOP-62 > 100 µM | IGROV-1 > 100 µM | NCI-H522 > 100 µM | OVCAR-4 > 100 µM | SF-295 > 100 µM | SF-539 > 100 µM | SK-OV-3 > 100 µM | SNB-75 > 100 µM | U-251 > 100 µM | UACC-62 > 100 µM

N#Cc1sc2nc3c(c(-c4ccccc4)c2c1N)CCCC3
inactive: ACHN 76.9 µM | HCT-116 33.2 µM | HOP-62 > 10 µM | K562 > 100 µM | NCI-H522 66.5 µM | OVCAR-4 > 100 µM | SF-295 22.1 µM | SF-539 23.9 µM | SK-OV-3 39.4 µM | U-251 39.8 µM | UACC-62 > 100 µM

CC(=O)OCC1OC(n2cc(I)c(=O)[nH]c2=O)C(OC(C)=O)C(OC(C)=O)C1OC(C)=O (stereo not drawn)
inactive: ACHN > 100 µM | COLO 205 > 100 µM | EKVX > 100 µM | HCT-116 > 100 µM | HOP-62 > 100 µM | IGROV-1 > 100 µM | K562 > 100 µM | NCI-H522 > 100 µM | OVCAR-4 > 100 µM | SF-295 > 100 µM | SK-OV-3 > 100 µM | SNB-75 82.8 µM | U-251 > 100 µM | UACC-62 > 100 µM

COC1OC(C)C(OCc2ccccc2)C(OS(=O)(=O)c2ccc(C)cc2)C1OS(=O)(=O)c1ccc(C)cc1 (stereo not drawn)
inactive: ACHN > 100 µM | COLO 205 > 100 µM | EKVX > 100 µM | HCT-116 > 100 µM | HOP-62 > 100 µM | IGROV-1 > 100 µM | K562 > 100 µM | NCI-H522 > 100 µM | OVCAR-4 > 100 µM | SF-295 > 100 µM | SF-539 > 100 µM | SK-OV-3 > 100 µM | SNB-75 > 100 µM | U-251 > 100 µM

CC1=NN(C(=O)CC(=O)NC(=O)CC(=O)Nc2ccccc2F)C(=O)C1/N=N/c1ccc([N+](=O)[O-])cc1 (stereo not drawn)
inactive: ACHN 30.1 µM | COLO 205 31.2 µM | EKVX 35.1 µM | HCT-116 21 µM | HOP-62 56.5 µM | IGROV-1 52 µM | K562 28.1 µM | OVCAR-4 29.9 µM | SF-295 37.2 µM | SF-539 > 100 µM | SK-OV-3 45.3 µM | SNB-75 34.2 µM | U-251 21.3 µM | UACC-62 55.3 µM

CCCc1nc(NC#N)nc(C(=O)Nc2ccccc2)c1CC
inactive: ACHN > 100 µM | EKVX > 100 µM | HCT-116 > 100 µM | HOP-62 > 100 µM | IGROV-1 > 100 µM | K562 > 100 µM | NCI-H522 > 100 µM | SF-295 > 100 µM | SF-539 > 100 µM | SNB-75 > 100 µM | U-251 > 100 µM | UACC-62 > 100 µM

CCOc1ccc(/N=C/c2c3ccccc3nc3ccccc23)cc1
inactive: ACHN 62.1 µM | COLO 205 > 100 µM | EKVX 95.3 µM | HOP-62 39.4 µM | IGROV-1 > 100 µM | K562 4.48 µM | NCI-H522 49 µM | OVCAR-4 70 µM | SF-295 59.6 µM | SF-539 65.6 µM | SK-OV-3 > 100 µM | SNB-75 44.8 µM | U-251 > 100 µM | UACC-62 95.3 µM

CC(c1ccccc1)N1O[C@]12CC[C@@]1(C)C(CCCC13OCCO3)C2 (stereo partly drawn)
inactive: ACHN 16.5 µM | COLO 205 17.8 µM | HCT-116 16.1 µM | HOP-62 > 100 µM | IGROV-1 3.72 µM | NCI-H522 17.2 µM | OVCAR-4 17.5 µM | SF-295 22 µM | SF-539 56.2 µM | SK-OV-3 > 100 µM | SNB-75 22.1 µM | U-251 21.1 µM | UACC-62 19.6 µM

C#CCOCn1cnc2c(S)ncnc21
inactive: ACHN > 100 µM | COLO 205 > 100 µM | EKVX > 100 µM | HOP-62 > 100 µM | IGROV-1 > 100 µM | K562 > 100 µM | NCI-H522 > 100 µM | OVCAR-4 > 100 µM | SF-295 > 100 µM | SK-OV-3 > 100 µM | SNB-75 13.6 µM | U-251 > 100 µM | UACC-62 > 100 µM

O=C(OC[C@H]1O[C@@H](OC(=O)c2cc(O)c(O)c(O)c2)[C@H](OC(=O)c2cc(O)c(O)c(O)c2)[C@@H](OC(=O)c2cc(O)c(O)c(O)c2)[C@@H]1OC(=O)c1cc(O)c(O)c(O)c1)c1cc(O)c(O)c(O)c1 [PENTAGALLOYL GLUCOSE]
inactive: ACHN 3.89 µM | COLO 205 4.98 µM | EKVX 6.04 µM | HCT-116 5.11 µM | HOP-62 3.89 µM | IGROV-1 5.73 µM | K562 47.2 µM | NCI-H522 3.46 µM | OVCAR-4 8.91 µM | SF-295 3.92 µM | SF-539 2.49 µM | SK-OV-3 6.17 µM | U-251 5.33 µM | UACC-62 2.26 µM
